In patent publication US11191742B2, “Methods of treating neurodegenerative disorders in a particular population” (ALZHEON, INC., priority 2015, dated 2021):

How the values were obtained:
Assay type in all cases: in vivo, human
[1] = Phase I 14-day multiple ascending dose study, plasma tramiprosate pharmacokinetics; settings: over 14 days
Description: (§1) To advance the clinical development of ALZ-801 into Phase 3, we have completed single dose and 14-day multiple ascending dose Phase 1 bridging studies in healthy elderly volunteers to evaluate safety, tolerability and pharmacokinetics. […] The longer half-life observed in the multiple ascending dose studies was obtained after 14 days of BID dosing and was due to the fact that there were more extended blood sampling time points taken in that study as compared to the single dose study.

[2] = ALZ-801 immediate release tablet, pharmacokinetics and GI tolerability fed vs fasted
[3] = Phase I single dose study, plasma tramiprosate pharmacokinetics; settings: single dose of oral ALZ-801
Description: as §1

CC(C)[C@H](N)C(=O)NCCCS(=O)(=O)O [ALZ-801, valyl-3-amino-1-propanesulfonic acid]
Dose proportionality and accumulation of plasma tramiprosate exposure [1]: excellent dose proportionality without accumulation or decrease in plasma exposure
Incidence of GI symptoms with food compared to the fasted state ([2]; ALZ-801 immediate release tablet): markedly reduced
Difference in pharmacokinetic parameters between fed and fasted subjects ([2]; ALZ-801 tablet, single dose of 205 mg): no significant difference
Plasma exposure of tramiprosate compared with oral tramiprosate [3]: equivalent plasma exposure of tramiprosate
